Assay results: a melting point compilation (Tetko et al.; mined from patent text by program, amines drawn as free bases though some values may be those of a salt)

Structure (SMILES)	melting point [°C]
COC(=O)c1cncc(O)c1C(=O)OC	136 to 137
CCC(CC)N(O)C(=O)Nc1ccc(Br)cc1	129 to 131
Cc1cccc2[nH]c(=S)nc(N)c12	> 250
CC(C)(C)[Si](OCC[C@H](O)CO)(c1ccccc1)c1ccccc1	70 to 72
CCN(CC)CCOc1ccc(Nc2ncc3c(n2)N(C)C(=O)N(c2c(C)cccc2C)C3)cc1	58
O=C(O)c1ccccc1Oc1cccc(F)c1	122
CC(C)(C)c1cc(SCSc2cc(C(C)(C)C)c(O)c(C(C)(C)C)c2)cc(C(C)(C)C)c1O	94 to 95
CCCSc1nc(NC2CC2c2ccccc2)c2nnn(C3CC(C(=O)NC)C(O)C3O)c2n1 (stereo unspecified)	165 to 166
O=S(=O)(c1ccc(Cl)cc1)N1c2ccccc2CCC1c1ccc(CN2CCSCC2)cc1 (stereo unspecified)	134 to 136
CC(=O)O[C@@H](C)C(=O)Nc1c(C(=O)c2cc(C)ccn2)[nH]c2cc(Cl)ccc12	213 to 214
NC(=O)c1sc(Nc2ccc(Cl)cc2)c2c1CCc1cnoc1-2	224 to 225
COc1cc(OCC(=O)O)cc(C)c1SCc1sc(-c2ccc(C(F)(F)F)cc2)nc1C	164 to 165
CCOC=Nc1c(S(=O)C(F)(F)F)c(C#N)nn1-c1c(Cl)cc(C(F)(F)F)cc1Cl (stereo unspecified)	63
CCCS(=O)c1sc(C(N)=O)c2c1-c1c(cnn1CC)CC2 (stereo unspecified)	151 to 152
CCC(CC)Oc1cc(C)nc2c1n(C)c(=O)n2-c1c(C)cc(C)cc1C	151 to 153
CN(O)C(=O)CCc1cc(-c2ccc(Cl)cc2)n(-c2ccccc2)n1	155 to 156
CC(C)(C)c1cc(C(=NN)c2ccccc2)cc(C(C)(C)C)c1O	97.4 to 117
Cn1c(COc2ccc(C(C)(CCC(=O)O)c3ccc(OCc4nc5ccccc5n4C)cc3)cc2)nc2ccccc21	110 to 112
CN1C[C@@H]2CN(c3ccc4nc(Br)cn4n3)C[C@@H]2C1	144 to 146
O=c1cc(-c2ccncn2)nc2n1CCC1(CCNC1)N2 (stereo unspecified)	226 to 228
NNc1ccc(-c2ccc(Cl)cc2)nn1	176 to 180
CCCc1nc2c(N)nc3cccnc3c2n1CCCCS(=O)(=O)N(C)C	162 to 163
Cc1ccc2c(c1)CN(C)C(=O)CC2	75 to 76
CC(C)C1SC=CNC1=O (racemic)	101 to 106
CCC1OC(=O)N(CCc2ccc(NC(=O)c3sc(C)nc3C)cc2)N=C1c1ccc(OC)c(OC)c1 (stereo unspecified)	217
CC1CCC(C(C)C)C(OC2C=CC(=O)O2)C1 (stereo unspecified)	70 to 71

Structure (SMILES)	melting point [°C]
COc1cccc(C(=O)c2[nH]c3cc(Cl)ccc3c2CC(=O)O)c1	227 to 231
O=C(O)CCSC(=S)Nc1ccc(Oc2ccc([N+](=O)[O-])cc2)cc1	146
Cc1ccc(C2(O)CCN(CCCc3nnc4n3CCCCC4)CC2)cc1	160 to 161
CCOC(=O)c1ccc(N(C)Cc2ccc3nc(C)[nH]c(=O)c3c2)s1	> 200
COc1cc(-c2cnc3[nH]cc(C(=O)C(C)(C)CO)c3n2)cc(OC)c1OC	227 to 229
CN1CCN(C(=O)Oc2ccc(C[C@H](NC(=O)Nc3ccccc3S(=O)(=O)c3ccccc3)C(=O)O)cc2)CC1	160
Cc1cn([C@H]2CC[C@H](CC(=O)O)C[C@@H]2NC(=O)OC(C)(C)C)c(=O)[nH]c1=O	231 to 233
COc1ccc2c(c1)cc(C1(O)C=CC(=O)C=C1)n2S(=O)(=O)c1ccccc1	126 to 128
CCCNC(=O)C1(CCCc2ccc(N3C(=O)c4ccccc4C3=O)cc2)c2ccccc2-c2ccccc21	148 to 151
C=C(C)COc1ccc(C(=O)C=Cc2cccnc2)c(O)c1	164 to 166
CN(Cc1ccc(S(C)=O)s1)C(=O)C12CC3CC(CC(C3)C1)C2 (stereo unspecified)	91.5 to 93.5
CCNC(SC)=C(C#N)C(=O)OC	86 to 88
O=C(O)C1=NOC2(CCC(C3CCCCC3)CC2)C1 (stereo unspecified)	139 to 142
O=C(O)CCCN1c2ccccc2Sc2ccc(Cl)cc21	142 to 144
CN1C(=O)[C@@H](NC(=O)C=Cc2ccccc2)N=C(c2ccccc2)c2ccccc21	126 to 140
C#CCOCc1c(C)nc2c(OCc3ccccc3Cl)cccn12	95 to 95.5
COc1ccccc1OCC1SCCN1S(C)(=O)=O (stereo unspecified)	118 to 120
O=S(=O)(c1ccccc1)N1CCC(C(=NCc2ccccc2)c2ccc(F)cc2)CC1	153 to 155
CC1CN(C(=O)Cl)NC1=O (stereo unspecified)	145
Cc1nc2cccc(C)n2c(=O)c1CCN1CCN(c2cccc(Cl)c2)CC1	116 to 118
CCCCSCC(=O)N(Cc1cccnc1)C(C)(C)C	55 to 56
CCCCS(=O)(=O)Nc1ccc(CCCCOCCCCCCNCC(O)c2ccc(O)c(CO)c2)cc1 (stereo unspecified)	81 to 84
CC1CC=C(c2ccc(C(C)O)cc2)CC1 (stereo unspecified)	65 to 67
Nc1nc2ccccc2c2c1ncn2CCCCNC(=O)c1ccc2ncccc2c1	122 to 127
COC1(c2cc(F)cc(Oc3nc(-c4ccccc4)c(-c4ccc(S(N)(=O)=O)cc4)o3)c2)CCOCC1	159 to 161
COc1ccc(C(=O)Nc2c(Cl)cncc2Cl)cc1OC1COCC1O (stereo unspecified)	183 to 185

Structure (SMILES)	melting point [°C]
CCCc1c[nH]cc2c(=O)n(-c3ccc(OC)cc3)nc1-2	165
CCCC(=O)Nc1ccc(Sc2ccccc2)cc1NC(=NC(=O)OC)NC(=O)OC	164 to 166
c1ccc(OCCSCc2nnc(-c3ccc(OCCCN4CCCC4)cc3)o2)cc1	70
NC(=O)CCN1C(=O)[C@@H](CC(=O)NCCc2ccc(Br)cc2)S[C@H]1c1ccc(C#Cc2ccccc2)s1 (relative stereo)	224 to 227
O=C(Nc1ccc(N2CCSC2)c(F)c1)OCc1ccccc1	90 to 92
O=C(O)CCc1cnoc1-c1ccc(Cl)c(F)c1	139 to 140
COc1ccc(N2CCN(c3c(C)c(C)c4c(c3C)C(N3CCCCC3)C(C)(C)O4)CC2)cc1 (stereo unspecified)	146 to 148
COC(=O)CCCc1cc2cc(Cl)ccc2n1S(=O)(=O)c1c(C)noc1C	96 to 98
O=C1NC(=S)N/C1=C\c1c[nH]c2ncc(-c3ccccc3)cc12	265 to 270
Cc1ccc2sc(C(C)(C)C)nc2c1	55 to 57
Nc1c(Br)cc(F)c(Cl)c1F	62
CCc1c(-c2ccc(OCc3ccccc3)cc2)c2c(CO)cc3c(OCc4ccccc4)ccc1n32	133 to 134
C=C(C(=O)c1ccc(-n2ccnc2)nc1)c1ccc(F)cc1F	115 to 116
CCCCCCCCCCCCC#CC#CCn1c2ccccc2c2ccccc21	53 to 58
CCCCCCCCC1(C#N)CCC(c2ccc(-c3ccc(CCCC)cc3)cc2)CC1 (stereo unspecified)	52
Cc1ccc(S(=O)(=O)NCC(NS(=O)(=O)c2ccc(C)cc2)c2ccccc2)cc1 (stereo unspecified)	148 to 149
Cc1cc(C2=NNC(=O)CC2)ccc1CCCCN	145 to 147
Cc1ncc2c(n1)-c1ccc(Cl)cc1C(c1ccccc1)=NC2	120 to 122
CCc1cc(CC)c2ccc(=O)[nH]c2n1	159 to 161
Cc1cc(C)c2nc(NCCCO)n(Cc3nc(C)ccc3O)c2c1	170
COc1ccccc1C1(Cl)C(=O)Nc2cc(C(F)(F)F)c(Cl)cc21 (stereo unspecified)	230 to 231
Oc1cc(Cl)c(-c2nnn[nH]2)cc1Oc1ccc(Cl)cc1Cl	174 to 180
O=C(c1ccc(CN2CCOCC2)cc1)c1cccc2nc(N[C@@H]3CCc4ccccc43)ccc12	160
O=C(O)Cc1cncc(Cc2nc3c(F)c(F)cc(F)c3s2)c1	196 to 197
O=S1(=O)N=CN(C2CC2)c2c(F)cccc21	151 to 152
NC(=O)c1cc(C(=O)CN(Cc2ccccc2)Cc2ccccc2)ccc1OCC(O)CO (stereo unspecified)	169 to 173

Structure (SMILES)	melting point [°C]
Cc1nnsc1C(=O)Nc1ccc(-n2nc(C(F)(F)F)cc2C)cc1	51 to 53
CC(c1ccc2c(c1)N(Cc1ccc(S(C)(=O)=O)cc1)c1ccccc1S2)N(O)C(N)=O (stereo unspecified)	143 to 145
O=C(O)CCCCCCC=C(c1ccccc1)c1ccccc1	77.5 to 78.5
Cc1nc(-n2c(C)ccc2C)nc(C)c1Br	64 to 65
COC(C)C(=O)Nc1ccc(C2=NNC(=O)CC2C)cc1 (stereo unspecified)	193 to 194
O=C(O)CC[C@H](NCC(O)C(O)C(O)C(O)C(=O)O)C(=O)O (stereo partly specified)	90
COc1ccc(CNc2nnc(N3CCC(CO)CC3)c3ccc(Cl)cc23)cc1Cl	128 to 131
O=[N+]([O-])c1cnn(-c2ccc(Cl)nn2)c1	169 to 172
CCCCNCCCNCCCCCCCCNCCCNCCCC	> 300
CCCCCCCCCCCCc1nnn(C(C)(C)C(=O)O)n1	68 to 71
CC1(C)O[C@H]2[C@H](OCc3ccccc3)O[C@H](C(N)=O)[C@H]2O1	78
O=C1Nc2c(ccc3c2CCCC3)SC1CCCBr (stereo unspecified)	122 to 123
Nc1nc(Cl)nc2c1ncn2C1OC(COC2CC2)C(O)C1O (stereo unspecified)	122 to 124
O=S(=O)(NCCCOc1cccc2nccn12)c1ccccc1	155 to 156
O=C(O)C1c2ccccc2COc2ccc(Cl)cc21 (stereo unspecified)	182 to 183
O=[N+]([O-])c1ccc2c(c1)COC(c1ccccc1F)O2 (stereo unspecified)	137 to 138
Cc1nc2c(O[C@@H]3c4ccccc4C[C@H]3O)cc(C(=O)O)cc2n1C (relative stereo)	306
COCC1=C(C(=O)NCCCN2CCC(c3ccc(F)cc3)CC2)C(c2ccc(F)c(F)c2)NC(=O)N1 (single isomer, unassigned; (-))	149 to 150
CN1C=CCC(C(=O)OC2CCC3C4CCC5=CC(=O)CCC5(C)C4CCC23C)=C1 (stereo unspecified)	172 to 175
Cc1ccsc1CN(O)C(N)=O	110
CCOC(=O)/C=C/c1cc(OC)cc(OC)c1C#N	119 to 122
C[Si](C)(C)C#Cc1ccc(C#N)cc1[N+](=O)[O-]	81 to 82
COc1cc(C2=NNC(=O)Cc3cc4c(cc32)OCO4)ccc1[N+](=O)[O-]	267 to 269
